Measured values from PubChem BioAssay AID179 (DTP/NCI, 2004).
Where “and” joins values, the source holds several entries; their conditions need not be identical. Equal values may be shown once. Calls of active or inactive are those of the source.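 The calls were made as follows: active = compounds giving half or more protection of infected cells from virus-caused growth loss, again on retest; inactive = the rest.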

Test system: CEM cells HIV-1 protection, formazan growth assay
Assay: NCI AIDS Antiviral Assay
Conditions: for IC50: measured here: growth of uninfected CEM cells
Outline: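 Human CEM cells, uninfected and HIV-1-infected, exposed to five drug concentrations; growth measured by soluble formazan assay and scored as percent protection from infection, with protecting compounds retested.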

Row | Compound | outcome | EC50 [µM] | IC50
1 | CN(C)CC1CCCC(CN(C)C)C1OC(=O)c1ccccc1 (configuration not stated) | inactive | – | –
2 | O=C(NCCCCCCNC(=O)c1cnc2ccccc2n1)c1cnc2ccccc2n1 | – | > 83.2 | > 83.2 µM
3 | COc1cc(NCCN)c2ncsc2c1 | – | > 200 | 85.1 µM
4 | O=c1cc(CCl)n2cnc3c(ncn3C3OC(CO)C(O)C3O)c2n1 (configuration not stated) | inactive | – | –
5 | OC1CSCCCSCC(O)CSCCCSC1 (configuration not stated) | – | > 759 | 389 µM
6 | COc1ccc2c(c1)OC(OC)(c1ccccc1)C(O)(OC)C2=O (configuration not stated) | – | > 200 | 15.1 µM
7 | c1ccc(C2=NOC3C4CCC(C4)C23)cc1 (configuration not stated) | inactive | – | –
8 | CN1C=C(C(N)=O)C2CC(O)[C@@](NC(=O)CS(N)(=O)=O)(C(=O)O)C2C1 (some centres not stated) | – | > 166 | 3.72 µM
9 | O=C(Nc1cccc2nsnc12)c1ccc(C(=O)Nc2cccc3nsnc23)cc1 | – | > 22.9 | > 22.9 µM
10 | O=[N+]([O-])c1cnc(-c2ccc(F)cc2)n1CCO | – | > 200 | > 200 µM
11 | Nc1nc(Cl)c(N)c(NCC2(CO)CC2)n1 | – | > 200 | > 200 µM
12 | CC1(C(N)=O)OC12CCCCC2 (configuration not stated) | – | > 200 | > 200 µM
13 | CCOS(=O)(=O)c1ccc(-c2c3nc(c(-c4ccc(S(=O)(=O)OCC)cc4)c4ccc([nH]4)c(-c4ccc(S(=O)(=O)OCC)cc4)c4nc(c(-c5ccc(S(=O)(=O)OCC)cc5)c5ccc2[nH]5)C=C4)C=C3)cc1 | – | > 100 | > 100 µM
14 | [Cl][Pt+2][Cl].[NH-]C1CCCC1[NH-] (configuration not stated) | – | > 200 | 49 µM
15 | NNC(=O)/C(=C/c1ccc(Cl)c(Cl)c1)NC(=O)c1ccccc1 | – | > 141 | > 141 µM
16 | CCCCCC/C=C\CCCCCCCCCC1=CC(=O)C=C(OC)C1=O | – | > 9.55 | > 9.55 µM
17 | O=C1C=C(Nc2ccc([N+](=O)[O-])cc2)c2ccccc2C1=O | – | > 6.76 | > 6.76 µM
18 | CCCCc1c2c(nc3c1CCC/C3=C\c1ccccc1)C(=O)C(CN(C)C)CC2 (configuration not stated) | – | > 9.33 | > 9.33 µM
19 | CC(=O)NNc1nc(C)c(C(=O)/C=C/c2ccccc2Cl)s1 | – | > 77.6 | 58.9 µM
20 | COc1cc(-c2c(C)c(C)nc(OC)c2C#N)cc(OC)c1OC | – | 22.9 | > 100 µM
21 | CC(=O)OCC1OC(Nc2ccc3nc(C)n(-c4ccccc4)c(=O)c3c2)C(OC(C)=O)C(OC(C)=O)C1OC(C)=O (configuration not stated) | – | > 100 | 61.7 µM
22 | NC(=O)N/N=C1/CCN2CCCc3cccc1c32 | – | > 200 | > 200 µM

Row | Compound | outcome | EC50 [µM] | IC50
23 | COCCCC(NC(=O)C(CC(C)C)NC(=O)OCc1ccc(OC)cc1)C(=O)OC (configuration not stated) | – | > 200 | 33.1 µM
24 | COc1ccc(C=C(C(=O)c2ccccc2)C(=O)c2ccccc2)cc1 | – | > 20.9 | > 20.9 µM
25 | CC1=C(O[Si](C(C)C)(C(C)C)C(C)C)C2CC1(OS(=O)(=O)C(F)(F)F)[C@H]1C(=O)N(c3ccccc3)C(=O)[C@@H]21 (some centres not stated) | – | > 4.79 | > 4.79 µM
26 | C=C1CC(C)(COc2cc(=O)oc3ccccc23)OC1=O (configuration not stated) | – | > 200 | 1.74 µM
27 | C=C(CCCO)[C@@H]1CC[C@@](C)(O)[C@H]1C | inactive | – | –
28 | CC(C)C1=C[C@H](c2ccccc2)c2ccccc2C1C(C#N)(C#N)C(C)C (some centres not stated) | – | > 1.48 | > 1.48 µM
29 | CC(C)(C)C(=O)ON1N=NC2C3CC(OCc4ccccc4)(OCc4ccccc4)C(O3)C21 (configuration not stated) | – | > 15.8 | > 15.8 µM
30 | CC(O[Si](C)(C)C(C)(C)C)[C@H](NC(=O)OCC(Cl)(Cl)Cl)C(=O)O (some centres not stated) | – | > 617 | > 100 µM
31 | CC(=O)N/N=C1\CC(C)(C)C2CCC1C2 (configuration not stated) | inactive | – | –
32 | COc1cc(NS(=O)(=O)c2ccc(C(C)=O)cc2)nc(OC)n1 | – | > 200 | > 200 µM
33 | CCOc1csc([C@H]2CCC3[C@@H]4CC=C5C[C@@H](OC(=O)CCC(=O)O)CC[C@]5(C)C4CC[C@@]32C)n1 (some centres not stated) | – | > 50.1 | 33.9 µM
34 | CC(=O)N(CCc1ccccc1)C(C)(C#N)c1ccccc1 (configuration not stated) | – | > 200 | > 200 µM
35 | CCOc1ccccc1NC(=O)CCC(=O)NN | – | > 145 | > 145 µM
36 | CCOC(=O)[C@H]1Nc2ccc(Cl)cc2[C@H]2CCC[C@@H]12 | – | > 67.6 | > 67.6 µM
37 | O=C(O)c1ccsc1C(=O)c1ccccc1 | – | > 200 | > 200 µM
38 | CCOC(=O)[C@]12C3C=CC(C3)C1C(=O)C1OC12 (some centres not stated) | – | > 562 | > 562 µM
39 | CN1CCC2CCCCN2CC1=O (configuration not stated) | – | > 1150 | > 1150 µM
40 | NC(=O)C(=CNC(=S)Nc1ccc(S(=O)(=O)Nc2ccccn2)cc1)C(N)=O | – | > 200 | > 200 µM
41 | Nc1ncnc2c1ncn2[C@@H]1C[C@@H]1CO | – | > 200 | > 200 µM
42 | CC1(C)NC(c2ccccc2)c2ccsc2-n2cccc21 (configuration not stated) | – | > 200 | > 100 µM
43 | Clc1ccc(-c2nn3c(C45CC6CC(CC(C6)C4)C5)nnc3s2)cc1 | – | > 200 | > 200 µM
44 | COc1ccc2c(O)c(S(=O)(=O)c3ccc(Cl)cc3)c(=O)oc2c1 | – | > 200 | 129 µM

Row | Compound | outcome | EC50 [µM] | IC50
45 | COC(=O)CCC(C)C1CCC2C3CC[C@@H]4CC(CO)CCC4(C)C3CCC12C (some centres not stated) | – | > 6.76 | > 6.76 µM
46 | O=C(O)[C@H](CCC[C@H]1C(=O)O[C@H](c2ccccc2)[C@H](c2ccccc2)N1C(=O)OCc1ccccc1)N[C@@H](c1ccccc1)[C@H](O)c1ccccc1 | – | > 89.1 | 77.6 µM
47 | CC1C(c2ccccc2O)c2cc3c(cc2OC1N1CCOCC1)OCO3 (configuration not stated) | – | > 200 | 42.7 µM
48 | O=C(Nc1ccccc1)c1cc(S(=O)(=O)N2CCNNC2=O)c(S)cc1Cl | – | 10.2 | 166 µM
49 | CC(=O)Nc1c(C#N)c2n(c1C(=O)O)CCC2 | – | > 200 | > 200 µM
50 | Cc1c(CC#N)cc(C)c2c3c([nH]c12)-c1ccccc1CC3 | – | > 26.3 | 19.1 µM
51 | Brc1ccc(SSc2ccc(Br)cc2)cc1 | – | > 200 | 9.12 µM and 3.39 µM
52 | CC1(C)CC(=O)C2=C(C1)Nc1ccccc1S2 | inactive | – | –
53 | Cc1ccc2c(c1)C(O)(c1ccccc1)C(c1ccccc1)C(c1ccccc1)O2 (configuration not stated) | – | > 200 | 6.92 µM
54 | COc1ccc(-c2c(C#N)c(-c3ccc(C)cc3)n(NS(=O)(=O)c3ccc(C)cc3)c(=O)c2C#N)cc1 | – | > 200 | 17.4 µM
55 | N#CC1=C(N)N(/N=C/c2ccco2)C(c2ccco2)C1(C#N)C#N (configuration not stated) | – | > 200 | 7.94 µM
56 | CCOCCN(CCOCC)C(=O)c1ccc2c(c1)no[n+]2[O-] | – | > 200 | 135 µM
57 | O=C1OCc2c1[nH]c(=O)[nH]c2=O | – | > 200 | > 200 µM
58 | O=C1Nc2ccccc2/C1=C/c1cc(Cl)cc(Cl)c1O (tested in a mixture with another compound) | – | > 200 | 44.7 µM
59 | CC(C)(C)C(=O)/C=C/c1ccc(Cl)cc1 | – | > 32.4 | > 32.4 µM
60 | Cc1[nH]c(=O)[nH]c(=O)c1CO | – | > 200 | 105 µM
61 | COC(=O)c1cc(C(=O)OC)c(CC(=O)C(=O)NC2C3CC4CC(C3)CC2C4)nc1CC(=O)C(=O)NC1C2CC3CC(C2)CC1C3 (configuration not stated) | – | > 282 | > 282 µM
62 | CCCCCCCCC1=C(OC)C(=O)c2ccc(C)nc2C1=O | inactive | – | –
63 | Oc1ccc2ccccc2c1N=Nc1ccsc1 | – | > 20.4 | > 20.4 µM
64 | CC1(C)CC(C2=NCCO2)CC(C)(C)N1 | – | > 200 | > 200 µM
65 | CC(C)[Si]([Se]c1ccccc1)(C(C)C)C(C)C | – | > 21.9 | > 21.9 µM
66 | O=C(Nc1ccc(Cl)c(Cl)c1)C(=O)C(C(=O)c1ccccc1-c1ccccc1)C1OC(=O)c2ccccc21 (configuration not stated) | – | > 66.1 | 29.5 µM

Row | Compound | outcome | EC50 [µM] | IC50
67 | CCCCCCCCCCCc1c2oc3ccc([N+](=O)[O-])cc3nc-2cc(Nc2cc([N+](=O)[O-])ccc2O)c1=O | – | > 3.31 | > 3.31 µM
68 | CC(C)(C)C1=C(Br)C(Br)(C(C)(C)C)OP1(=O)c1ccccc1 (configuration not stated) | – | > 200 | > 200 µM
69 | O=C(O)/C=C/c1c2ccc(=O)cc-2oc2cc(O)ccc12 | – | > 200 | 28.8 µM
70 | CCOc1ccc(OCC)c([P+](c2ccccc2)(c2ccccc2)c2ccccc2)c1 | inactive | – | –
71 | COc1ccccc1N1C(Cl)C(=O)C1c1c[nH]c2ccccc12 (configuration not stated) | – | > 151 | 129 µM
72 | CC(C)c1cc(=O)oc2c3c(ccc12)OC(C)(C)[C@H](OC(=O)C12CCC(C)(C(=O)O1)C2(C)C)[C@@H]3OC(=O)C12CCC(C)(C(=O)O1)C2(C)C (some centres not stated) | – | 0.324 | 33.9 µM
73 | Cc1cc(C)c(C(=O)O)c(N)c1O | inactive | – | –
74 | COC1(CC[C@H](C)COC2OC(CO)C(O)C(O)C2O)O[C@H]2C[C@H]3[C@@H]4CC=C5C[C@@H](OC6OC(CO)C(O)C(OC7OC(CO)C(O)C(O)C7O)C6OC6OC(C)C(O)C(O)C6O)CC[C@]5(C)[C@H]4CC[C@]3(C)[C@H]2[C@@H]1C (some centres not stated) | – | > 200 | 3.89 µM
75 | CC(=O)/C(=C\c1ccco1)C(=O)Nc1ccccc1 | – | > 74.1 | > 74.1 µM
76 | C[C@H](CCC1=NCCN1)[C@H]1CC[C@H]2[C@@H]3[C@H](O)C[C@@H]4C[C@H](O)CC[C@]4(C)[C@H]3CC[C@]12C | – | > 200 | 24 µM
77 | NC(=O)COC(=O)c1c(Cl)nc2sccn12 | – | > 347 | > 347 µM
78 | [O-]c1nn(C2OC(CO)C(O)C2O)c2cccc[n+]12 (configuration not stated) | – | > 933 | > 933 µM
79 | COc1ccc2c(C)cc(N/N=C/c3sccc3C)nc2c1 | – | > 200 | 8.32 µM
80 | CCCc1ccc(OC2OC(COC(C)=O)C(OC(C)=O)C(OC(C)=O)C2OC(C)=O)cc1 (configuration not stated) | – | > 95.5 | > 95.5 µM
81 | COc1cc2c(cc1OC)C(=O)/C(=C/c1ccc(N(C)C)cc1)CC2 | – | > 155 | 110 µM
82 | Cc1c(/C=N/NC(=S)Nc2ccc(Cl)cc2)c(=O)n(-c2ccccc2)n1C | – | > 200 | > 200 µM
83 | N=C1/C(=C/c2ccco2)C(=O)N=C2SC=NN12 | – | > 200 | > 200 µM
84 | CC(SC(=O)Nc1ccc(N=Nc2ccccc2)cc1)C(=O)O (configuration not stated) | inactive | – | –
85 | Clc1cccc(Cl)c1Nc1ccccc1Cc1nc2ccccc2[nH]1 | – | > 200 | 75.9 µM
86 | Cc1ccc(N=NC(C(=O)c2ccccc2)C(=O)c2ccccc2)cc1 | – | > 39.8 | 20 µM
